Data as given in patent US6054435A, “6-O-substituted macrolides having antibacterial activity” (priority 1999, dated 2000).
Values after ≈ are worked out from the molar mass of the structure shown.

Experiments:
Assay in all cases: in vitro antibacterial activity (MIC), agar dilution
Format in all cases: cell-based
[1] = test system: Staphylococcus aureus A-5278; details: organism code CC; BHI agar, 35-37° C., 20 to 24 hours; unit assumed
Outline: (§1)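 Steps: dilute compound serially into BHI agar (twelve plates); spot inocula diluted 1:100, or 1:10 for slow-growing Streptococcus; incubate; inspect visually. MIC recorded as lowest level with no growth, slight haze or sparse isolated colonies.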

[2] = test system: Streptococcus pyogenes EES61; details: organism code LL; BHI agar, 35-37° C., 20 to 24 hours; unit assumed
Outline: as §1

[3] = test system: Streptococcus Pneumonia GYR 1171; details: organism code YY; BHI agar, 35-37° C., 20 to 24 hours; unit assumed
Outline: as §1

Candida albicans CCH 442 = details: organism code TT; BHI agar, 35-37° C., 20 to 24 hours; unit assumed
Outline: as §1

[4] = test system: Staphylococcus aureus ATCC 6538P; details: organism code AA; BHI agar, 35-37° C., 20 to 24 hours; unit assumed
Outline: as §1

[5] = test system: Staphylococcus aureus A5177; details: organism code BB; BHI agar, 35-37° C., 20 to 24 hours; unit assumed
Outline: as §1

[6] = test system: Nocardia Asteroides ATCC9970; details: organism code VV; BHI agar, 35-37° C., 20 to 24 hours; unit assumed
Outline: as §1

[7] = test system: Streptococcus Pneumonia 5649; details: organism code ZZA; BHI agar, 35-37° C., 20 to 24 hours; unit assumed
Outline: as §1

[8] = test system: Streptococcus bovis A-5169; details: organism code JJ; BHI agar, 35-37° C., 20 to 24 hours; unit assumed
Outline: as §1

Escherichia coli DC-2 = details: organism code SS; BHI agar, 35-37° C., 20 to 24 hours; unit assumed
Outline: as §1

[9] = test system: Micrococcus luteus ATCC 4698; details: organism code PP; BHI agar, 35-37° C., 20 to 24 hours; unit assumed
Outline: (§2)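 BHI agar incorporation method; twelve compound concentrations. Streptococcus and other slow growers inoculated at 1:10, other strains at 1:100. Visual MIC read-out versus growth control.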

[10] = test system: Staphylococcus aureus CMX 553; details: organism code FF; BHI agar, 35-37° C., 20 to 24 hours; unit assumed
Outline: as §1

[11] = test system: Streptococcus pyogenes PIU 2548; details: organism code NN; BHI agar, 35-37° C., 20 to 24 hours; unit assumed
Outline: as §1

[12] = test system: Staphylococcus aureus 1775; details: organism code GG; BHI agar, 35-37° C., 20 to 24 hours; unit assumed
Outline: as §1

[13] = test system: Streptococcus agalactiae CMX 508; details: organism code KK; BHI agar, 35-37° C., 20 to 24 hours; unit assumed
Outline: as §1

[14] = test system: Streptococcus Pneumonia 5979; details: organism code ZZ; BHI agar, 35-37° C., 20 to 24 hours; unit assumed
Outline: as §1

Escherichia coli JUHL = details: organism code QQ; BHI agar, 35-37° C., 20 to 24 hours; unit assumed
Outline: as §1

[15] = test system: Staphylococcus aureus NCTC10649M; details: organism code EE; BHI agar, 35-37° C., 20 to 24 hours; unit assumed
Outline: as §1

[16] = test system: Enterococcus faecium ATCC 8043; details: organism code II; BHI agar, 35-37° C., 20 to 24 hours; unit assumed
Outline: as §1

Escherichia coli SS = details: organism code RR; BHI agar, 35-37° C., 20 to 24 hours; unit assumed
Outline: as §1

[17] = test system: Haemophilis Influenzae DILL AMP R; details: organism code WW; BHI agar, 35-37° C., 20 to 24 hours; unit assumed
Outline: as §1

[18] = test system: Micrococcus luteus ATCC 9341; details: organism code OO; BHI agar, 35-37° C., 20 to 24 hours; unit assumed
Outline: as §2

[19] = test system: Mycobacterium smegmatis ATCC 114; details: organism code UU; BHI agar, 35-37° C., 20 to 24 hours; unit assumed
Outline: as §1

[20] = test system: Streptococcus Pneumonia ATCC6303; details: organism code XX; BHI agar, 35-37° C., 20 to 24 hours; unit assumed
Outline: as §1

[21] = test system: Staphylococcus aureus CMX 642A; details: organism code DD; BHI agar, 35-37° C., 20 to 24 hours; unit assumed
Outline: as §1

[22] = test system: Streptococcus pyogenes 930; details: organism code MM; BHI agar, 35-37° C., 20 to 24 hours; unit assumed
Outline: as §1

[23] = test system: Staphylococcus epidermidis 3519; details: organism code HH; BHI agar, 35-37° C., 20 to 24 hours; unit assumed
Outline: as §1

Structure (SMILES) | MIC [1] [µg/mL] | MIC [2] [µg/mL] | MIC [3] [µg/mL] | MIC (Candida albicans CCH 442) [µg/mL] | MIC [4] [µg/mL] | MIC [5] [µg/mL] | MIC [6] [µg/mL] | MIC [7] [µg/mL] | MIC [8] [µg/mL] | MIC (Escherichia coli DC-2) [µg/mL] | MIC [9] [µg/mL] | MIC [10] [µg/mL] | MIC [11] [µg/mL] | MIC [12] [µg/mL] | MIC [13] [µg/mL] | MIC [14] [µg/mL] | MIC (Escherichia coli JUHL) [µg/mL] | MIC [15] [µg/mL] | MIC [16] [µg/mL] | MIC (Escherichia coli SS) [µg/mL] | further results
CC[C@H]1OC(=O)[C@H](C)C(=O)[C@H](C)[C@@H](O[C@@H]2O[C@H](C)C[C@H](N(C)C)[C@H]2O)[C@](C)(OCC#Cc2ccc(-c3cncc(C#N)c3)s2)C[C@@H](C)C(=O)[C@H](C)[C@H]2NC(=O)O[C@@]21C [Example 8] | > 100 | ≤ 0.005 | ≤ 0.004 | > 100 | 0.05 (≈ 0.0609 µM) | 0.05 (≈ 0.0609 µM) | 0.01 (≈ 0.0122 µM) | ≤ 0.004 | ≤ 0.005 | > 100 | 0.05 (≈ 0.0609 µM) | 0.02 (≈ 0.0244 µM) | 0.1 (≈ 0.122 µM) | > 100 | 0.01 (≈ 0.0122 µM) | 0.25 (≈ 0.305 µM) | 50 (≈ 60.9 µM) | 0.02 (≈ 0.0244 µM) | 0.02 (≈ 0.0244 µM) | 0.2 (≈ 0.244 µM) | MIC [17]: 4 µg/mL (≈ 4.87 µM); MIC [18]: ≤ 0.005 µg/mL; MIC [19]: 0.78 µg/mL (≈ 0.95 µM); MIC [20]: ≤ 0.004 µg/mL; MIC [21]: 0.05 µg/mL (≈ 0.0609 µM); MIC [22]: 0.2 µg/mL (≈ 0.244 µM); MIC [23]: 0.05 µg/mL (≈ 0.0609 µM)
CC[C@H]1OC(=O)[C@H](C)C(=O)[C@H](C)[C@@H](O[C@@H]2O[C@H](C)C[C@H](N(C)C)[C@H]2O)[C@](C)(OCC#Cc2ccc(-c3cncc(C(N)=O)c3)s2)C[C@@H](C)C(=O)[C@H](C)[C@H]2NC(=O)O[C@@]21C [Example 9] | > 100 | 0.02 (≈ 0.0238 µM) | ≤ 0.004 | > 100 | 0.1 (≈ 0.119 µM) | 0.1 (≈ 0.119 µM) | 0.1 (≈ 0.119 µM) | 0.25 (≈ 0.298 µM) | 0.02 (≈ 0.0238 µM) | 50 (≈ 59.6 µM) | 0.1 (≈ 0.119 µM) | 0.1 (≈ 0.119 µM) | 0.2 (≈ 0.238 µM) | > 100 | 0.02 (≈ 0.0238 µM) | 0.03 (≈ 0.0358 µM) | 50 (≈ 59.6 µM) | 0.2 (≈ 0.238 µM) | 0.05 (≈ 0.0596 µM) | 0.78 (≈ 0.93 µM) | MIC [17]: 2 µg/mL (≈ 2.38 µM); MIC [18]: 0.02 µg/mL (≈ 0.0238 µM); MIC [19]: 6.2 µg/mL (≈ 7.39 µM); MIC [20]: ≤ 0.004 µg/mL; MIC [21]: 0.1 µg/mL (≈ 0.119 µM); MIC [22]: 0.2 µg/mL (≈ 0.238 µM); MIC [23]: 0.1 µg/mL (≈ 0.119 µM)
CCOC(=O)c1cncc(-c2ccc(C#CCO[C@]3(C)C[C@@H](C)C(=O)[C@H](C)[C@H]4NC(=O)O[C@]4(C)[C@@H](CC)OC(=O)[C@H](C)C(=O)[C@H](C)[C@H]3O[C@@H]3O[C@H](C)C[C@H](N(C)C)[C@H]3O)s2)c1 [Example 10] | > 100 | 0.01 (≈ 0.0115 µM) | 0.03 (≈ 0.0346 µM) | > 100 | 0.1 (≈ 0.115 µM) | 0.1 (≈ 0.115 µM) | 0.1 (≈ 0.115 µM) | 0.5 (≈ 0.576 µM) | 0.005 (≈ 0.00576 µM) | > 100 | 0.2 (≈ 0.23 µM) | 0.05 (≈ 0.0576 µM) | 0.2 (≈ 0.23 µM) | > 100 | 0.01 (≈ 0.0115 µM) | 4 (≈ 4.61 µM) | > 100 | 0.2 (≈ 0.23 µM) | 0.1 (≈ 0.115 µM) | 0.78 (≈ 0.899 µM) | MIC [17]: 8 µg/mL (≈ 9.22 µM); MIC [18]: 0.01 µg/mL (≈ 0.0115 µM); MIC [19]: 1.56 µg/mL (≈ 1.8 µM); MIC [20]: 0.03 µg/mL (≈ 0.0346 µM); MIC [21]: 0.1 µg/mL (≈ 0.115 µM); MIC [22]: 50 µg/mL (≈ 57.6 µM); MIC [23]: 0.2 µg/mL (≈ 0.23 µM)
